Test results as given in PMC7796107, “Efficient Separation of Phytochemicals from Muehlenbeckia volcanica (Benth.) Endl. by Polarity-Stepwise Elution Counter-Current Chromatography and Their Antioxidant, Antiglycation, and Aldose Reductase Inhibition Potentials” (Molecules, 2021).
Marks after values point to notes of the source that are not given here.

Assays:
[1] = ABTS radical scavenging assay; assay type: biochemical; details: Trolox equivalent antioxidant capacity
Procedure: (§1) The antioxidant activities of the 70% methanol extract of M. volcanica and the separated compounds were evaluated using DPPH, ABTS, and ORAC assays. The results were expressed as Trolox equivalent antioxidant capacity (TEAC, µg Trolox/µg extract or µM Trolox/µM compound), which were calculated with the equations obtained from the calibration curves of Trolox standards (final concentrations) versus their DPPH and ABTS radical inhibition (%) and the net AUC value (ORAC assay).
The ABTS radical scavenging assay was carried out using the same EL800 microplate reader. Briefly, 0.2 mM of ABTS diammonium salt was prepared in 3.5 mM of potassium persulfate aqueous solution, and the mixture solution was then diluted 10 times using distilled water. The diluted solution was allowed to stand for 24 h in the dark at room temperature (about 25 °C) to produce ABTS radical cations (ABTS^+). For reaction, 290 μL of ABTS^+ solution was mixed with 10 μL of sample (dissolved in methanol, extract 62.5–125 µg/mL; compounds 20–250 µM) in a 96-well plate, and the mixture solution was allowed to react for 10 min at 25 °C in the dark. Then, the absorbance was measured at 750 nm. […] Results are expressed in µg Trolox equivalents/µg extract or µM Trolox equivalents/µM compound. The ABTS radical scavenging activity (%) is calculated using Equation (1) where Asample is the absorbance of ABTS^+ solution with a sample, Ablank1 is the absorbance of the test sample without ABTS^+, Acontrol is the absorbance of ABTS^+ solution without a sample, Ablank2 is the absorbance of buffer, without ABTS^+ or a sample.

[2] = cited from earlier work
[3] = system: human erythrocytes; set-up: method as in earlier work; details: high glucose conditions; cited from earlier work
[4] = system: diabetic rats; details: cited from earlier work
[5] = system: streptozotocin-induced diabetic cats; details: cited from earlier work
[6] = target: T1, aldose reductase (AR) (Rattus norvegicus, UniProt P07943); assay: Aldose reductase (AR) inhibition assay, rat lens homogenate; assay type: biochemical, Sprague–Dawley rats
T1 construct: centrifuged at 10,000× g for 30 min at 4 °C (Centrifuge 5417R, Eppendorf, Germany) to obtain AR homogenate (in the supernatant); from tissue; host or cells: eye lenses of Sprague–Dawley rats
Procedure: For the extraction of AR, the rat eye lenses were grounded in a precooled mortar (−70 °C) and extracted using 0.1 M PBS (pH 6.2; about 0.5 mL of PBS per two frozen rat lenses).
A 96-well plate-based AR inhibition assay was used in this study, which was modified from a previous method. In principle, the rate of the absorbance decrease of NADPH at 340 nm (OD340 nm) was used for evaluation of the AR inhibitory activity. […] Then, as soon as 20 μL of the substrate (DL-glyceraldehyde dimer, 25 mM in 0.1 M PBS, pH 7.0) was added, the absorbance of the reaction solution at 340 nm was measured for 6 min using an Epoch microplate spectrophotometer (BioTek Instruments, Highland Park, IL, USA). […] The samples were first prepared at high concentrations in DMSO or in a mixture of DMSO and water and then diluted using water shortly before the experiment. The concentration of DMSO was kept within 0.2% (v/v) in the reaction system. […] The AR inhibition ratio (%) for the samples was calculated using Equation (4):(4) %inhibition=1−Slopes−Slopeb/Slopec−Slopeb×100%, where Slopec, Slopes, and Slopeb are the slopes obtained from the OD340 nm versus the reaction time (min) dotted lines of the control group (without sample), sample group (with enzyme and sample), and blank group (without enzyme or sample), respectively. |Slope| is the absolute value of Slope.

[7] = ORAC (oxygen radical absorbance capacity) assay; assay type: biochemical; details: Trolox equivalent antioxidant capacity, ORAC assay (peroxyl radicals)
Procedure: as §1
The ORAC assay was carried out using a Fluoroskan Ascent FL microplate reader (Thermo, Waltham, MA, USA) using the method described previously with minor modifications. Antioxidants can scavenge the peroxyl radicals generated by AAPH, which prevent the degradation of the fluorescein and, therefore, prevent the loss of the fluorescence of fluorescein. Briefly, fluorescein sodium salt (117 nM) and AAPH (40 mM) were freshly prepared in 0.1 M phosphate-buffered saline (PBS, pH 7.4). For reaction, 120 µL of fluorescein sodium salt (117 nM) and 20 µL of sample (dissolved in methanol, extract 10–20 µg/mL; compounds 10–160 µM) were mixed in a black 96-well plate and pre-incubated for 15 min at 37 °C. Next, 60 µL of AAPH (40 mM) was added, and the fluorescence was measured 100 times (interval 1 min) at excitation and emission wavelengths of 485 nm and 538 nm, respectively, by the microplate reader maintained at 37 °C. […] The relative ORAC values are expressed in µg Trolox equivalents/µg extract or µM Trolox equivalents/µM compound.

[8] = target: fructose-mediated bovine serum albumin (BSA) glycation (Bos taurus, UniProt P02769); assay: Antiglycation assay, fructose-mediated BSA glycation model
Procedure: The antiglycation assay was carried out using a fructose-mediated BSA glycation model as reported previously [43] with minor modifications. […] Then, 200 µL of the reaction solution from each sample was pipetted to black 96-well plates to determine the fluorescent AGEs using a microplate fluorescence reader (BIOTEK-FLx800, Winooski, VT, USA) at excitation and emission wavelengths of 360 ± 20 nm and 460 ± 20 nm, respectively. Aminoguanidine [25], a synthetic antiglycation agent, was used as a positive control with final concentrations of 200 µg/mL to 800 µg/mL or 1 mM to 4 mM.

[9] = system: streptozotocin-induced diabetic rats; details: cited from earlier work
[10] = DPPH radical scavenging assay; assay type: biochemical; details: Trolox equivalent antioxidant capacity
Procedure: as §1
The DPPH radical scavenging assay was carried out using an EL800 microplate reader (Bio-Tek Instruments, Winooski, VT, USA). Briefly, 180 μL of freshly prepared DPPH solution (0.32 mM in methanol) was mixed with 20 μL of sample (dissolved in methanol, extract 250 µg/mL; compounds 62.5–1000 µM) in a 96-well plate. The mixture was incubated for 20 min in the dark at 25 °C, and then, the absorbance was measured at […]. […] Results are expressed in µg Trolox equivalents/µg extract or µM Trolox equivalents/µM compound. The DPPH radical scavenging activity (%) is calculated using Equation (1):(1) %inhibition=1−Asample−Ablank1/Acontrol−Ablank2×100%, where Asample is the absorbance of DPPH solution with a sample, Ablank1 is the absorbance of the test sample without DPPH, Acontrol is the absorbance of DPPH solution without a sample, Ablank2 is the absorbance of methanol, without DPPH or a sample.

[11] = read-out: Antiglycation activity, inhibition (%)

fructose-mediated bovine serum albumin (BSA) glycation, sequence (P02769 25-607): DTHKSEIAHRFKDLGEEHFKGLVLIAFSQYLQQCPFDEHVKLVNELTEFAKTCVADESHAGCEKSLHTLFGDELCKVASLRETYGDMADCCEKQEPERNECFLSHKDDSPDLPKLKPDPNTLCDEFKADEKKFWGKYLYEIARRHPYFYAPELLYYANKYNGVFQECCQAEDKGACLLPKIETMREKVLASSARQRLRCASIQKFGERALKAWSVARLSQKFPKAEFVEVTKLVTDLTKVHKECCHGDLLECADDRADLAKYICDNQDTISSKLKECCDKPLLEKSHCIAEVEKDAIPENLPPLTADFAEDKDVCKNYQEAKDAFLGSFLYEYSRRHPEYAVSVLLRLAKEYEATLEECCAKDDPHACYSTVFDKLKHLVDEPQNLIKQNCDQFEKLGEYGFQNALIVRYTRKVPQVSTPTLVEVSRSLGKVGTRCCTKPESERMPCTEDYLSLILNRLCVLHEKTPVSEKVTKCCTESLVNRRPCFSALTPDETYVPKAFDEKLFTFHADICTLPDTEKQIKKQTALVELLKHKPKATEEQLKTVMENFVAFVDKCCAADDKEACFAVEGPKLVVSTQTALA

C[C@@H]1O[C@@H](OC[C@H]2O[C@@H](Oc3c(-c4ccc(O)c(O)c4)oc4cc(O)cc(O)c4c3=O)[C@H](O)[C@@H](O)[C@@H]2O)[C@H](O)[C@H](O)[C@H]1O [Rutin (8), rutin]
TEAC, ABTS [1]: 1.12 ± 0.04 ^d µM trolox/µM Compound | Inhibition of AGEs by trapping methylglyoxal [2]: inhibit AGEs by trapping methylglyoxal | Accumulation of sorbitol in human erythrocytes [3]: suppress the accumulation of sorbitol | Progression of lens opacification [4]: delay the progression of lens opacification | Impaired cardiac function [5]: partially reverse the impaired cardiac function | inhibition at 3.125 µM ([6]; 3.125 µM, read-out: AR inhibition activity, inhibition (%)): 46.4 ± 1.21% | inhibition at 6.25 µM ([6]; 6.25 µM, read-out: AR inhibition activity, inhibition (%)): 62.79 ± 0.3% | inhibition at 12.5 µM ([6]; 12.5 µM, read-out: AR inhibition activity, inhibition (%)): 75.2 ± 0.9% | inhibition at 25 µM ([6]; 25 µM, read-out: AR inhibition activity, inhibition (%)): 84.5 ± 1.51% | IC50 ([6]; rat lens AR homogenate): 3.51 ± 0.12 µM | TEAC, ORAC [7]: 5.77 ± 0.08 ^b µM trolox/µM Compound | IC50 [8]: 20.1 ± 0.23 µM | inhibition at 12.5 µM [8, 11]: 30.8 ± 1.1% | inhibition at 25 µM [8, 11]: 61.7 ± 2.49% | inhibition at 50 µM [8, 11]: 81.82 ± 0.65% | inhibition at 100 µM [8, 11]: 91.51 ± 0.4% | Effect on oxidative stress [9]: ameliorate the oxidative stress | TEAC, DPPH [10]: 0.90 ± 0.09 ^e µM trolox/µM Compound
